Experimental data: PMC9697349, “Mouse Pharmacokinetics and In Vitro Metabolism of SH-11037 and SH-11008, Synthetic Homoisoflavonoids for Retinal Neovascularization” (Pharmaceutics, 2022)

Key:
[1] = Metabolic stability of SH-11008 in human liver S9 fractions; assay type: in vitro ADME
Experimental: (§1) For studies using NADPH or PAPS as a cofactor, 4 μL of SH-11008 (40 μM) solution in 40 vol% CH3CN were mixed with 40 μL of 4 mg protein/mL HLS9 or MLS9 fractions diluted in 0.1 M potassium phosphate buffer (pH 7.4) and 100 μL of 0.1 M potassium phosphate buffer (pH 7.4). When using UDPGA as a cofactor, 32 μL of UGT Reaction Mix Solution B and 68 μL of de-ionized water were used instead of 100 μL of 0.1 M potassium phosphate buffer (pH 7.4). The mixture was warmed at 37 °C for 5 min. The reaction was then initiated by adding 16 μL of 10 mM cofactor dissolved in de-ionized water. The assay condition for UDPGA was used for metabolic stability studies conducted with a mixture of the three cofactors. The reaction was terminated at selected times by adding 160 μL of ice-cold CH3CN containing glipizide (500 ng/mL) as the IS. The resulting mixture was vortexed, sonicated, and centrifuged at 3000× g for 20 min. Aliquots of the supernatant were subjected to LC-MS/MS analysis described below in Section 2.6.2.
(§2) The LC-MS/MS system consisted of Agilent 1290 Infinity HPLC system and Agilent 6530 Accurate-Mass Quadrupole Time-of-Flight (Q-TOF) mass spectrometer equipped with dual AJS ESI ion source (Agilent Technologies Korea, Seoul, Korea). Chromatographic separation was performed on an Agilent Eclipse Plus C18 column (2.1 × 100 mm, 3.5 μm) with a Phenomenex Security Guard C18 guard column (4 × 20 mm) maintained at 40 °C. The mobile phase consisted of 0.1% formic acid in deionized water (A) and 0.1% formic acid in CH3CN (B): 0~2 min 5% B, 2~7 min to 95% B, and 7~10 min 95% B. Total run time including a 5 min equilibration time was 15 min. The flow rate was 0.4 mL/min. The injection volume was 5 µL. The mass spectrometer was operated in a positive Auto MS/MS scan mode with a full scan mass range of m/z 100–1000, fragmentor voltage 150 V, and CE 30 eV, selecting the two most intense precursor ions for collision-induced dissociation. Putative metabolites were identified using Agilent Mass Hunter Metabolite ID software (ver.B.04.00) followed by manual interpretation of the spectral data. Chromatograms and mass spectra were extracted using Agilent Mass Hunter Qualitative Analysis software (ver. B.05.00).
(§3) Pharmacokinetic parameters were calculated by noncompartmental analysis of plasma concentration versus time profiles using PKSolver. The scaling factors of mice and human, half-life (t1/2), intrinsic clearance (CLint), hepatic clearance (CLH), and hepatic extraction ratio (EH) were from the in vitro studies as described previously. […] The fraction of parent drug converted to the metabolite (fm) was calculated as follows:fm (%) = (AUC(m) × CL(m))/D × MWparent/MWmetabolite × 100,(1) where D is dose of the parent drug, AUC(m) is area under the curve for the metabolite after a dose of parent drug, CL(m) is CL of metabolite, and MW is molecular weight.

[2] = Metabolic stability of SH-11008 in mouse liver S9 fractions; assay type: in vitro ADME
Experimental: as §1, §2, §3

[3] = Stability of SH-11037 in 0.1 M phosphate buffer (pH 7.4); assay type: physicochemical
Experimental: SH-11037 (1 μM) was incubated in triplicate in 0.1 M phosphate buffer (pH 7.4) or in mouse, dog, and human plasma to investigate its stability. SH-11037 (40 μM) in 50 vol% aqueous CH3CN was mixed with 0.1 M phosphate buffer (pH 7.4) or plasma diluted 3-fold with 0.1 M phosphate buffer (pH 7.4) to a final volume of 160 μL and a final concentration of 1 μM. The resulting solutions were then incubated at 37 °C in a shaking water bath. The incubations were terminated at selected times by adding 160 µL of ice-cold CH3CN containing glipizide (500 ng/mL) as the internal standard (IS). The resulting mixture was vortexed, sonicated, and centrifuged at 3000× g for 20 min. Aliquots of the supernatant were subjected to LC-MS/MS analysis described below in Section 2.6.2.
The LC-MS/MS system consisted of Agilent 1290 Infinity HPLC system and Agilent 6530 Accurate-Mass Quadrupole Time-of-Flight (Q-TOF) mass spectrometer equipped with dual AJS ESI ion source (Agilent Technologies Korea, Seoul, Korea). Chromatographic separation was performed on an Agilent Eclipse Plus C18 column (2.1 × 100 mm, 3.5 μm) with a Phenomenex Security Guard C18 guard column (4 × 20 mm) maintained at 40 °C. The mobile phase consisted of 0.1% formic acid in deionized water (A) and 0.1% formic acid in CH3CN (B): 0~2 min 5% B, 2~7 min to 95% B, and 7~10 min 95% B. Total run time including a 5 min equilibration time was 15 min. […]

[4] = assay type: in vitro ADME; conditions: male, ICR, mouse, 1 min, 1 µM, pH 7.4
Experimental: (§4) Chemical inhibition assay was conducted in mouse, dog, and human plasma and mouse eye homogenate to identify the enzyme(s) involved in the hydrolysis of SH-11037. BW284c51 [16], DTNB [17], EPZ [18], and BNPP [19, 20] were used as selective inhibitors of acetylcholinesterase (AChE), paraoxonase 1 (PON1), butyrylcholinesterase (BchE), and carboxylesterase (CES), respectively. Mouse eyes (male ICR mouse, 8 weeks old) taken immediately after CO2 asphyxiation were homogenized by an electric tissue homogenizer (Tissue Master-125, Omni International, Kennesaw, GA, USA) in an equal amount of 0.1 M potassium phosphate buffer (pH 7.4) on ice. The resulting homogenate was then centrifuged at 3000× g for 20 min. The supernatant was stored at −80 °C until the experiment. DMSO stock solutions of the inhibitors (0.4, 4 and 40 mM) were mixed with plasma diluted 3-fold with 0.1 M phosphate buffer (pH 7.4) to a final volume of 160 μL and final inhibitor concentrations of 0.01, 0.1, and 1 mM. The supernatant of mouse eye homogenate was treated similarly with only BNPP as the inhibitor and a single inhibitor concentration of 1 mM. The resulting pre-incubation solutions were then incubated for 2 h at 37 °C in a shaking water bath. SH-11037 (40 μM) in 50 vol% aqueous CH3CN was mixed with the pre-incubation solutions to a final volume of 160 μL and a final concentration of 1 μM. The resulting solutions were then incubated at 37 °C in a shaking water bath. The incubations were terminated at selected times by adding 160 µL of ice-cold CH3CN containing glipizide (500 ng/mL) as the IS. The resulting mixture was vortexed, sonicated, and centrifuged at 3000× g for 20 min. Aliquots of the supernatant were subjected to LC-MS/MS analysis described below in Section 2.6.2.
as §2

[5] = system: hydrolysis of SH-11037 in dog plasma; assay type: in vitro ADME; conditions: beagle, 2 h, 1 µM, pH 7.4
Experimental: as §4, §2

[6] = system: hydrolysis of SH-11037 in mouse plasma; assay type: in vitro ADME; conditions: ICR, mouse, 1 min, 1 µM, pH 7.4
Experimental: as §4, §2

metabolic stability in the presence of NADPH ([1]; HLS9, NADPH 1 mM only, 30 min)	half-life at 1 µM ([1]; human, liver S9 fractions, SH-11008 1 µM, HLS9 1 mg protein/mL, mixture of NADPH, UDPGA and PAPS (1 mM), 37 °C) [min]	EH ([1]; human, predicted hepatic extraction ratio from HLS9 data)	CLH ([1]; human, predicted with the well-stirred model from HLS9 data) [mL/min/kg]	CLint scaled at 1 µM ([1]; liver S9 fractions, human, scaled from in vitro t1/2 in HLS9) [mL/min/kg]	CLint scaled at 1 µM ([2]; CD-1, liver S9 fractions, pH 7.4, mouse, scaled from in vitro t1/2 in MLS9) [mL/min/kg]	half-life at 1 µM ([2]; CD-1, mouse, liver S9 fractions, SH-11008 1 µM, MLS9 1 mg protein/mL, mixture of NADPH, UDPGA and PAPS (1 mM), 37 °C) [min]	metabolic stability with cofactor added individually ([2]; MLS9, NADPH, UDPGA or PAPS 1 mM individually, 30 min)	EH ([2]; mouse, predicted hepatic extraction ratio from MLS9 data)	CLH ([2]; mouse, predicted with the well-stirred model from MLS9 data) [mL/min/kg]	Compound	SH-11037 remaining ([3]; 1 µM, 0.1 M phosphate buffer pH 7.4, 1 h incubation at 37 °C) [%]	SH-11008 formation in buffer ([3]; SH-11037 1 µM, pH 7.4 buffer, 1 h at 37 °C)	SH-11037 converted to SH-11008 [4]	SH-11008 Formation (%), % of SH-11037 converted to SH-11008 [5] [%]	SH-11008 Formation (%), % of SH-11037 converted to SH-11008 [6] [%]
stable	0.6	0.99	19.9	3580	1510	5.7	metabolized rapidly	0.94	84.9	COc1ccc(CC2COc3cc(OC)c(OC)c(OC)c3C2=O)cc1O (stereo not drawn) [SH-11008]	–	–	–	–	–
–	–	–	–	–	–	–	–	–	–	COc1ccc(CC2COc3cc(OC)c(OC)c(OC)c3C2=O)cc1OC(=O)[C@H](Cc1ccccc1)NC(=O)OC(C)(C)C (stereo partly drawn) [SH-11037]	~100	not detected	~ 90%	91.7 ± 1.2	98.3 ± 2.8
